Patent US20090137572A1, “2-substituted-4-heteroaryl-pyrimidines useful for the treatment of proliferative disorders” (priority 2004, published 2009)

Assays:
Assay type in all cases: biochemical
[1] = target: T1, Flt3 (FMS-like tyrosine kinase-3) (Homo sapiens, UniProt P36888); test: Kinase assay (radioactive phosphate incorporation), Flt3; conditions: pIC50 is -log(IC50, M), read-out: Kinase Inhibition pIC50 Flt3 (converted)
T1 sequence (P36888 27-993): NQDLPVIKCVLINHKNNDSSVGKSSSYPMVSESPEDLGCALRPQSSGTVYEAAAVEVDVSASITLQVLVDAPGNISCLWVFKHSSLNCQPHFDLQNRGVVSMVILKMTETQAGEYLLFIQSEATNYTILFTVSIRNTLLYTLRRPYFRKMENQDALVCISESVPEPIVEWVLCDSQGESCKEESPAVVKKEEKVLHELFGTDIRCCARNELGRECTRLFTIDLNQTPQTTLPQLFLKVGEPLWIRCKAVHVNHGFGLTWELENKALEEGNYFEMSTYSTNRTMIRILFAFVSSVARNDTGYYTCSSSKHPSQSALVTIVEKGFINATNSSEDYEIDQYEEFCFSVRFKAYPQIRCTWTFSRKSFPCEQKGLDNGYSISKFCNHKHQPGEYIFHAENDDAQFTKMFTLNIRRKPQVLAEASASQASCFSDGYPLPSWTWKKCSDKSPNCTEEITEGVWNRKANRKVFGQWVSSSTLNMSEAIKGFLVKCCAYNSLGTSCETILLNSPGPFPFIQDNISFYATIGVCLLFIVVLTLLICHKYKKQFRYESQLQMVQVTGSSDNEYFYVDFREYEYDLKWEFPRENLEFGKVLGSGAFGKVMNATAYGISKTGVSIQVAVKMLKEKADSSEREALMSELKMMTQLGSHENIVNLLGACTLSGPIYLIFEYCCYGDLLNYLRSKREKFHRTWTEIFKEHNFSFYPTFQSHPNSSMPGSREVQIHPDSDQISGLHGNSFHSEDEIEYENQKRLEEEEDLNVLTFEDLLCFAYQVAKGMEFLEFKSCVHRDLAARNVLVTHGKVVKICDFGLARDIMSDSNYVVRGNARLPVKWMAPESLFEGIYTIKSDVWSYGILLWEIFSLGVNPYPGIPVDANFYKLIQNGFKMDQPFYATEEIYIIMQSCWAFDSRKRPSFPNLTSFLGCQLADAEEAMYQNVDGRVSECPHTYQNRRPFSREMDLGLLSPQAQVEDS
Summary of the method: (§1)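 Radiometric filter-binding format: recombinant kinase + substrate, pH 7.4 MOPS buffer with EGTA, DTT, vanadate; 100 μM ATP/[γ-32P]-ATP, 15 mM MgCl2; 30° C; stopped on ice, P81 or GF/C filtration, scintillation read.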

CDK9/cyclin T1 = CDK9/cyclin T1 (Homo sapiens, UniProt P50750); test: CDK 9 assay (CTD peptide substrate); conditions: read-out: Kinase Inhibition pIC50 CDK9-cyclin T1 (converted)
CDK9/cyclin T1, sequence (P50750 whole entry): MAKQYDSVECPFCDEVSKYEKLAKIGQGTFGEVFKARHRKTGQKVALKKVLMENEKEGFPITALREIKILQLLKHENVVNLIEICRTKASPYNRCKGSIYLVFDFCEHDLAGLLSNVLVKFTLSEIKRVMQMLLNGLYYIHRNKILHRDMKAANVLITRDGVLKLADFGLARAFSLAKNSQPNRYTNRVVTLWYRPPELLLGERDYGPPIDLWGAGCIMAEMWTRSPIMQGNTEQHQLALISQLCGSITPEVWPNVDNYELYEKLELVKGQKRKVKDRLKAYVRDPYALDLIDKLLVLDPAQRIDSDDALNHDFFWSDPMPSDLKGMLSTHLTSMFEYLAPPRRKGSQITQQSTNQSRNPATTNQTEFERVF
CDK9/cyclin T1, sequence (O60563 whole entry partner): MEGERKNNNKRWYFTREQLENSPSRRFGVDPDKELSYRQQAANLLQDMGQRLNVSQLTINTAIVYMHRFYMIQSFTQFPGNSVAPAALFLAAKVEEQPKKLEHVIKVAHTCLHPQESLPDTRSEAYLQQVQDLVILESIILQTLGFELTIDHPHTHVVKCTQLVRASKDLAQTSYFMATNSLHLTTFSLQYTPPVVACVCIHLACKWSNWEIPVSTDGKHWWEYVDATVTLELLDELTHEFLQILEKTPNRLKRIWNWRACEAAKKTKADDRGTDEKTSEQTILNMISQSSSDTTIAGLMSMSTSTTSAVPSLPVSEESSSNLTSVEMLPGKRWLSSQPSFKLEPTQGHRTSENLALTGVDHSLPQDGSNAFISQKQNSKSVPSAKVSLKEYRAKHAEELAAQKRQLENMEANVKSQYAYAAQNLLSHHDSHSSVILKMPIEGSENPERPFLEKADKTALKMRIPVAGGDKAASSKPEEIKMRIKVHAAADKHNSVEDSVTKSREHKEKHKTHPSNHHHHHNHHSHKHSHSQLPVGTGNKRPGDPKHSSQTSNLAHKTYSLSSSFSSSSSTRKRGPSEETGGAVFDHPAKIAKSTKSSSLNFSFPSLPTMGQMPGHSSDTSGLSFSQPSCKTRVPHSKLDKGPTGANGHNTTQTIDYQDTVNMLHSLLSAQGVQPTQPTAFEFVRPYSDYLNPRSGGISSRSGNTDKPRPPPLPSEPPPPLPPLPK
Summary of the method: (§2)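 Test compounds were incubated with recombinant human kinase/cyclin complex and CTD peptide substrate for 45 min at 30° C (pH 7.2, 100 μM ATP spiked with 32PγATP, 15 mM MgCl2). Reactions were stopped on ice, avidin was added, and phosphorylated peptide was captured on P81 filters and counted by scintillation.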

CDK7/cyclin H = CDK7/cyclin H (Homo sapiens, UniProt P50613); test: CDK 7 assay (CTD peptide substrate); conditions: read-out: Kinase Inhibition pIC50 CDK7-cyclin H (converted)
CDK7/cyclin H, sequence (P50613 whole entry): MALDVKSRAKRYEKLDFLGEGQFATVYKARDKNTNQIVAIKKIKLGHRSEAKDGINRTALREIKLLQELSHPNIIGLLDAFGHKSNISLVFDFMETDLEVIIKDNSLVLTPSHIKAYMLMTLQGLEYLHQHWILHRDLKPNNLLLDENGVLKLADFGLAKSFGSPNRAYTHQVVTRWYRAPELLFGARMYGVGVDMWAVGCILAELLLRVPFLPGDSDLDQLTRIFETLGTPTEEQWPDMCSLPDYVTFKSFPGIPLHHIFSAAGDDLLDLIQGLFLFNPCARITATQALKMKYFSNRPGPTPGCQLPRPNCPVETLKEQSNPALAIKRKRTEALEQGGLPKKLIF
CDK7/cyclin H, sequence (P51946 whole entry partner): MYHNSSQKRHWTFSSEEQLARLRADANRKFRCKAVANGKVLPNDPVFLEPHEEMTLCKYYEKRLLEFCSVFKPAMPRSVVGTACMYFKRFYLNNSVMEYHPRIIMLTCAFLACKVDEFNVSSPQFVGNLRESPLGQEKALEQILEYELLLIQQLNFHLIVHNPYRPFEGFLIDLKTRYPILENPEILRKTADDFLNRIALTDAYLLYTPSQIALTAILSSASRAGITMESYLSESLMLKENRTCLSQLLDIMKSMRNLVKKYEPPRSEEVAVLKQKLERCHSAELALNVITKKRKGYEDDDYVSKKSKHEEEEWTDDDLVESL
Summary of the method: as §2

Aurora A kinase = target: T2, Aurora A kinase (Homo sapiens, UniProt O14965); test: Aurora-A (human) kinase assay (Kemptide substrate); conditions: pIC50 is -log(IC50, M); 15 μM ATP; read-out: Kinase Inhibition pIC50 Aurora A kinase (converted)
T2 construct: purchased
T2 sequence (O14965 1-403): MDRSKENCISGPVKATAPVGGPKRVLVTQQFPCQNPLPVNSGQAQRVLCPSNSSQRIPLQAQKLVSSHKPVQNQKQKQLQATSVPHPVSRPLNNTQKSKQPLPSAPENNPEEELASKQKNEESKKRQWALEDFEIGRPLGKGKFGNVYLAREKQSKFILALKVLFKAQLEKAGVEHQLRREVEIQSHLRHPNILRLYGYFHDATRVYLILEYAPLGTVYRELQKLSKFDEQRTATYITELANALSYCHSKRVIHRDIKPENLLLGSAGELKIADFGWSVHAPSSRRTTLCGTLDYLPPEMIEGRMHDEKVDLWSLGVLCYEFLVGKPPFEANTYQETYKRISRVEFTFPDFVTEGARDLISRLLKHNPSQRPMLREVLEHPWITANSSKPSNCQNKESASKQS
Summary of the method: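 Radiometric filter-binding assay: commercial aurora-A kinase (5-10 ng) with 200 μM Kemptide in MOPS/EDTA pH 7.0, started with 10 mM Mg acetate and 15 μM ATP plus [γ-33P]-ATP. Incubated 40 min at room temperature, stopped with phosphoric acid, incorporated 33P counted by scintillation.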

GSK3b = GSK3b (Homo sapiens, UniProt P49841); test: Kinase assay (radioactive phosphate incorporation), GSK-3b; conditions: read-out: Kinase Inhibition pIC50 GSK-3b (converted)
GSK3b, sequence (P49841 whole entry, species assumed): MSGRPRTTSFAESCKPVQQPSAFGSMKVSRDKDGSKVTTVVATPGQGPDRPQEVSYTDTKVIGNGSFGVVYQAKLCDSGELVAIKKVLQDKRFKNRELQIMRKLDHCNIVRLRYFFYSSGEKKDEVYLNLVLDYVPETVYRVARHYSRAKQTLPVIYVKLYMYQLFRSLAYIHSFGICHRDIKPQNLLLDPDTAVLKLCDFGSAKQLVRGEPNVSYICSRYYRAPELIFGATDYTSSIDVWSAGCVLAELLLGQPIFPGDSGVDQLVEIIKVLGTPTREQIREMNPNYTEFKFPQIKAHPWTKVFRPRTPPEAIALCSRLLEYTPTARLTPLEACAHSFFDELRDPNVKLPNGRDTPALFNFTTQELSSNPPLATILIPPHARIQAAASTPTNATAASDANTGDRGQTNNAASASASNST
Description: (§3) Kinase assays. The compounds of the invention above were investigated for their ability to inhibit the enzymatic activity of various protein kinases (Table 2). This was achieved by measurement of incorporation of radioactive phosphate from ATP into appropriate polypeptide substrates. Recombinant protein kinases and kinase complexes were produced or obtained commercially. Assays were performed using 96-well plates and appropriate assay buffers (typically 25 mM β-glycerophosphate, 20 mM MOPS, 5 mM EGTA, 1 mM DTT, 1 mM […], pH 7.4), into which were added 2-4 μg of active enzyme with appropriate substrates. The reactions were initiated by addition of Mg/ATP mix (15 mM MgCl2+100 μM ATP with 30-50 kBq per well of [γ-^32P]-ATP) and mixtures incubated as required at 30° C. Reactions were stopped on ice, followed by filtration through p81 filterplates or GF/C filterplates (Whatman Polyfiltronics, Kent, UK). After washing 3 times with 75 mM aq orthophosphoric acid, plates were dried, scintillant added and incorporated radioactivity measured in a scintillation counter (TopCount, Packard Instruments, Pangbourne, Berks, UK). Compounds for kinase assay were made up as 10 mM stocks in DMSO and diluted into 10% DMSO in assay buffer.

CDK2-cycline E = CDK2-cycline E (Homo sapiens, UniProt P24941); test: Kinase assay (radioactive phosphate incorporation), CDK2-cyclin E; conditions: read-out: Kinase Inhibition pIC50 CDK2-cycline E (converted)
Summary of the method: as §1

CDK4-cyclin D1 = CDK4-cyclin D1 (Homo sapiens, UniProt P11802); test: Kinase assay (radioactive phosphate incorporation), CDK4-cyclin D1; conditions: read-out: Kinase Inhibition pIC50 CDK4-cyclin D1 (converted)
CDK4-cyclin D1, sequence (P11802 whole entry): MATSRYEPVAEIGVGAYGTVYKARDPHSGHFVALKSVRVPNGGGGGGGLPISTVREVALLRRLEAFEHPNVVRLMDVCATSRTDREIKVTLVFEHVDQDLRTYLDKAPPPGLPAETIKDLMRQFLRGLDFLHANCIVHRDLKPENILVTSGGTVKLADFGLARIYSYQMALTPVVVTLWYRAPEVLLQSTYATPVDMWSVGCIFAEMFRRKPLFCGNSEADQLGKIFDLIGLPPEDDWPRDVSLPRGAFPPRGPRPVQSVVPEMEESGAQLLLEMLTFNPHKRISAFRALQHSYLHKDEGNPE
CDK4-cyclin D1, sequence (P24385 whole entry partner): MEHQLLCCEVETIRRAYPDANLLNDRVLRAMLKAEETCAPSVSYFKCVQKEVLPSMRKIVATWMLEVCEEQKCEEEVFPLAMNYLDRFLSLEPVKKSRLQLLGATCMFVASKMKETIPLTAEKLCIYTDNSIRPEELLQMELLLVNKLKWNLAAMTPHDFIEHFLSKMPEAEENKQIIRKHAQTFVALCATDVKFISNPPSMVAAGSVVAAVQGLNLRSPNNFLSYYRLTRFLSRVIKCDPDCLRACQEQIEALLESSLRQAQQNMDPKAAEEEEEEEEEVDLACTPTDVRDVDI
Description: as §3

CDK1-cyclin B = CDK1-cyclin B (Homo sapiens, UniProt P06493); test: Kinase assay (radioactive phosphate incorporation), CDK1-cyclin B; conditions: read-out: Kinase Inhibition pIC50 CDK1-cyclin B (converted)
CDK1-cyclin B, sequence (P06493 whole entry): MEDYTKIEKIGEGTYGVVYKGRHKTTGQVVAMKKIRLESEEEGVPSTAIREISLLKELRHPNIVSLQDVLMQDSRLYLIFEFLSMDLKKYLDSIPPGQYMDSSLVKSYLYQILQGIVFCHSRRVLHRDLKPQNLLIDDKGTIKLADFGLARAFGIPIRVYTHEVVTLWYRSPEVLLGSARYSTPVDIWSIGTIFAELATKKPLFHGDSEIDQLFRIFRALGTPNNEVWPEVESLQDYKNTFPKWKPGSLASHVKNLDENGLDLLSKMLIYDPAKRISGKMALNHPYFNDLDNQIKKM
CDK1-cyclin B, sequence (P14635 whole entry partner): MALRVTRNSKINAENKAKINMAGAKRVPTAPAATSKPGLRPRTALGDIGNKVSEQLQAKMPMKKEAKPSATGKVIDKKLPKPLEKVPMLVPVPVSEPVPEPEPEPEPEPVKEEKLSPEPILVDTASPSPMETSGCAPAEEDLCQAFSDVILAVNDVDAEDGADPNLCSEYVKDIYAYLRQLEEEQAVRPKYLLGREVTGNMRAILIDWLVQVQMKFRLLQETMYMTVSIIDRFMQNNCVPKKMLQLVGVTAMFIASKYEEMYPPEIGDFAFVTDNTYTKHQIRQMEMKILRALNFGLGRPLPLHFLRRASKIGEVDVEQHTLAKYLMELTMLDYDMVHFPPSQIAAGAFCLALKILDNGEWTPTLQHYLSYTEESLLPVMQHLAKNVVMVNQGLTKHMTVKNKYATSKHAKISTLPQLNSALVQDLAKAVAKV
Description: as §3

CNc1nc(C)c(-c2ccnc(Nc3ccc(C)c(Br)c3)n2)s1 [Compound 42, (3-Bromo-4-methyl-phenyl)-[4-(4-methyl-2-methylamino-thiazol-5-yl)-pyrimidin-2-yl]-amine] showed an IC50 [1] of 79.4 nM, an IC50 (CDK9/cyclin T1) of 39.8 nM and an IC50 (CDK7/cyclin H) of 6310 nM. For the same compound, the IC50 (Aurora A kinase) was 25.1 nM, the IC50 (GSK3b) was 1000 nM and the IC50 (CDK2-cycline E) was 316 nM.
Compound CCNc1nc(C)c(-c2ccnc(Nc3cccc(S(=O)(=O)NCC)c3)n2)s1 [Compound 29, N-Ethyl-3-[4-(2-ethylamino-4-methyl-thiazol-5-yl)-pyrimidin-2-ylamino]-benzenesulfonamide] has an IC50 [1] of 1000 nM, an IC50 (CDK9/cyclin T1) of 10 nM and an IC50 (CDK7/cyclin H) of 794 nM. The IC50 (Aurora A kinase) was 50.1 nM, the IC50 (CDK4-cyclin D1) was 398 nM and the IC50 (CDK2-cycline E) was 316 nM.
CCNc1nc(C)c(-c2ccnc(NCc3cccnc3)n2)s1 [Compound 79, [4-(2-Ethylamino-4-methyl-thiazol-5-yl)-pyrimidin-2-yl]-pyridin-3-ylmethyl-amine] was tested, and the IC50 (CDK9/cyclin T1) was 1580 nM, the IC50 (CDK7/cyclin H) was 6310 nM and the IC50 (CDK4-cyclin D1) was 3160 nM. It also gave an IC50 (CDK2-cycline E) of 6310 nM.
CCNc1nc(C)c(-c2ccnc(Nc3ccc(C)c(S(=O)(=O)N4CCOCC4)c3)n2)s1 [Compound 36, [4-(2-Ethylamino-4-methyl-thiazol-5-yl)-pyrimidin-2-yl]-[4-methyl-3-(morpholine-4-sulfonyl)-phenyl]-amine] showed an IC50 (CDK9/cyclin T1) of 39.8 nM, an IC50 (CDK7/cyclin H) of 1260 nM and an IC50 (Aurora A kinase) of 12.6 nM. It also gave an IC50 (GSK3b) of 3980 nM.
For CCNc1nc(C)c(-c2ccnc(Nc3cccc(S(=O)(=O)NC(C)(C)CO)c3)n2)s1 [Compound 84, 3-[4-(2-Ethylamino-4-methyl-thiazol-5-yl)-pyrimidin-2-ylamino]-N-(2-hydroxy-1,1-dimethyl-ethyl)-benzenesulfonamide], the IC50 (CDK9/cyclin T1) was 158 nM, the IC50 (CDK7/cyclin H) was 1580 nM and the IC50 (Aurora A kinase) was 25.1 nM. For the same compound, the IC50 (GSK3b) was 2510 nM and the IC50 (CDK2-cycline E) was 631 nM.
Work on COCCNc1nc(C)c(-c2ccnc(Nc3cccc(S(N)(=O)=O)c3)n2)s1 [Compound 83, 3-{4-[2-(2-Methoxy-ethylamino)-4-methyl-thiazol-5-yl]-pyrimidin-2-ylamino}-benzenesulfonamide] yielded an IC50 [1] of 39.8 nM, an IC50 (CDK9/cyclin T1) of 15.8 nM and an IC50 (CDK7/cyclin H) of 50.1 nM. For the same compound, the IC50 (GSK3b) was 794 nM and the IC50 (CDK2-cycline E) was 25.1 nM.
In the case of Cc1nc(C)c(-c2ccnc(Nc3cccc(CNC(=O)c4ccccn4)c3)n2)s1 [Compound 91, Pyridine-2-carboxylic acid 3-[4-(2,4-dimethyl-thiazol-5-yl)-pyrimidin-2-ylamino]-benzylamide], the IC50 [1] is reported as 251 nM, the IC50 (Aurora A kinase) is reported as 794 nM and the IC50 (GSK3b) is reported as 3980 nM. For the same compound, the IC50 (CDK2-cycline E) was 398 nM.
CNc1nc(C)c(-c2ccnc(Nc3ccc(S(N)(=O)=O)cc3)n2)s1 [Compound 34, 4-[4-(4-Methyl-2-methylamino-thiazol-5-yl)-pyrimidin-2-ylamino]-benzenesulfonamide] showed an IC50 [1] of 316 nM, an IC50 (CDK7/cyclin H) of 1000 nM and an IC50 (Aurora A kinase) of 31.6 nM. The IC50 (GSK3b) was 1260 nM.
CCNc1nc(C)c(-c2ccnc(Nc3cc(OC)c(OC)c(OC)c3)n2)s1 [Compound 24, [4-(2-Ethylamino-4-methyl-thiazol-5-yl)-pyrimidin-2-yl]-(3,4,5-trimethoxy-phenyl)-amine] gave an IC50 [1] of 7.94 nM, an IC50 (CDK9/cyclin T1) of 31.6 nM and an IC50 (Aurora A kinase) of 2.51 nM. It also gave an IC50 (CDK1-cyclin B) of 2000 nM.
For CCNc1nc(C)c(-c2ccnc(Nc3cccc(S(=O)(=O)NCc4ccccc4)c3)n2)s1 [Compound 80, N-Benzyl-3-[4-(2-ethylamino-4-methyl-thiazol-5-yl)-pyrimidin-2-ylamino]-benzenesulfonamide], the IC50 (CDK9/cyclin T1) was 251 nM, the IC50 (Aurora A kinase) was 398 nM and the IC50 (GSK3b) was 2510 nM.
Work on CC(=O)N1CCN(c2ccc(Nc3nccc(-c4sc(N)nc4C)n3)cc2)CC1 [Compound 57, 1-(4-{4-[4-(2-Amino-4-methyl-thiazol-5-yl)-pyrimidin-2-ylamino]-phenyl}-piperazin-1-yl)-ethanone] yielded an IC50 (CDK9/cyclin T1) of 10000 nM, an IC50 (CDK7/cyclin H) of 15800 nM and an IC50 (Aurora A kinase) of 63.1 nM. The IC50 (CDK4-cyclin D1) was 10000 nM and the IC50 (CDK1-cyclin B) was 79400 nM.
